Measurements: patent publication US12077503B2, “Substituted cyclic amides and their use as herbicides” (FMC CORPORATION, priority 2015, dated 2024)

Columns and labels:
Format in all cases: in vivo
[1] = tested on: velvetleaf (Abutilon theophrasti); assay: Test G Post-Emergence Protocol; details: Abutilon theophrasti, post-emergence, 312 h; for pest or weed control at 15.625 g/ha: 15.625 g ai/ha, evaluated after 13 days (100=total damage to plant; 0=no damage to plant), read-out: Velvetleaf damage rating; for pest or weed control at 62.5 g/ha: 62.5 g ai/ha, read-out: Velvetleaf damage rating (100=total damage to plant; 0=no damage to plant); for pest or weed control at 62.5 g/ha / pest or weed control at 250 g/ha: evaluated after 13 days; for pest or weed control at 250 g/ha: 250 g ai/ha, read-out: damage to plant, Velvetleaf (100=total damage to plant; 0=no damage to plant)
Method in brief: (§1)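 Seedlings grown 8 days in soil in a glasshouse (24/16 °C day/night, 14 h light, 65% humidity) were sprayed post-emergence with compound in acetone/water 50:50 plus 0.5% Tween 20 at 15.625, 62.5 or 250 g/ha. Damage was scored after 13 days on a 0–100 scale (100 = total damage).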

[2] = tested on: giant foxtail (Setaria faberi); assay: Test G Post-Emergence Protocol; details: Setaria faberi, post-emergence, 312 h; for pest or weed control at 15.625 g/ha: 15.625 g ai/ha, evaluated after 13 days (100=total damage to plant; 0=no damage to plant), read-out: Foxtail, Giant damage rating; for pest or weed control at 62.5 g/ha: 62.5 g ai/ha, read-out: Foxtail, Giant damage rating (100=total damage to plant; 0=no damage to plant); for pest or weed control at 62.5 g/ha / pest or weed control at 250 g/ha: evaluated after 13 days; for pest or weed control at 250 g/ha: 250 g ai/ha, read-out: damage to plant, Foxtail, Giant (100=total damage to plant; 0=no damage to plant)
Method in brief: as §1

[3] = tested on: barnyardgrass (Echinochloa crus-galli); assay: Test G Post-Emergence Protocol; details: Echinochloa crus-galli, post-emergence, 312 h; for pest or weed control at 15.625 g/ha: 15.625 g ai/ha, evaluated after 13 days (100=total damage to plant; 0=no damage to plant), read-out: Barnyardgrass damage rating; for pest or weed control at 62.5 g/ha: 62.5 g ai/ha, read-out: Barnyardgrass damage rating (100=total damage to plant; 0=no damage to plant); for pest or weed control at 62.5 g/ha / pest or weed control at 250 g/ha: evaluated after 13 days; for pest or weed control at 250 g/ha: 250 g ai/ha, read-out: damage to plant, Barnyardgrass (100=total damage to plant; 0=no damage to plant)
Method in brief: as §1

corn (Zea mays) [4] = assay: Test G Post-Emergence Protocol; details: Zea mays, post-emergence, 312 h; for plant injury at 15.625 g/ha: 15.625 g ai/ha, evaluated after 13 days (100=total damage to plant; 0=no damage to plant), read-out: Corn damage rating; for plant injury at 62.5 g/ha: 62.5 g ai/ha, read-out: Corn damage rating (100=total damage to plant; 0=no damage to plant); for plant injury at 62.5 g/ha / plant injury at 250 g/ha: evaluated after 13 days; for plant injury at 250 g/ha: 250 g ai/ha, read-out: damage to plant, Corn (100=total damage to plant; 0=no damage to plant)
Method in brief: as §1

[5] = tested on: redroot pigweed (Amaranthus retroflexus); assay: Test G Post-Emergence Protocol; details: Amaranthus retroflexus, post-emergence, 312 h; for pest or weed control at 15.625 g/ha: 15.625 g ai/ha, evaluated after 13 days (100=total damage to plant; 0=no damage to plant), read-out: Pigweed, Redroot damage rating; for pest or weed control at 62.5 g/ha: 62.5 g ai/ha, read-out: Pigweed, Redroot damage rating (100=total damage to plant; 0=no damage to plant); for pest or weed control at 62.5 g/ha / pest or weed control at 250 g/ha: evaluated after 13 days; for pest or weed control at 250 g/ha: 250 g ai/ha, read-out: damage to plant, Pigweed, Redroot (100=total damage to plant; 0=no damage to plant)
Method in brief: as §1

[6] = tested on: ivy-leaved morning glory (Ipomoea hederacea); assay: Test G Post-Emergence Protocol; details: Ipomoea, post-emergence, 312 h; for pest or weed control at 15.625 g/ha: 15.625 g ai/ha, evaluated after 13 days (100=total damage to plant; 0=no damage to plant), read-out: Morningglory, Ivy-leaved damage rating; for pest or weed control at 62.5 g/ha: 62.5 g ai/ha, read-out: Morningglory, Ivy-leaved damage rating (100=total damage to plant; 0=no damage to plant); for pest or weed control at 62.5 g/ha / pest or weed control at 250 g/ha: evaluated after 13 days; for pest or weed control at 250 g/ha: 250 g ai/ha, read-out: damage to plant, Morningglory, Ivy-leaved (100=total damage to plant; 0=no damage to plant)
Method in brief: as §1

[7] = tested on: velvetleaf (Abutilon theophrasti); assay: Test G Pre-Emergence Protocol; details: Abutilon theophrasti, pre-emergence, 312 h, evaluated after 13 days; for pest or weed control at 15.625 g/ha: 15.625 g ai/ha; for pest or weed control at 15.625 g/ha / pest or weed control at 250 g/ha: read-out: Velvetleaf damage rating (100=total damage to plant; 0=no damage to plant); for pest or weed control at 62.5 g/ha: 62.5 g ai/ha, 100=total damage to plant, 0=no damage to plant, read-out: plant damage rating, Velvetleaf; for pest or weed control at 250 g/ha: 250 g ai/ha
Method in brief: (§2)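 Test compound in 0.5% Tween 20 acetone/water (50:50) was applied at three rates (15.625, 62.5, 250 g/ha) to soil sown one day earlier. After 13 days plants were scored for injury, where 0 means unaffected and 100 means completely damaged.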

[8] = tested on: giant foxtail (Setaria faberi); assay: Test G Pre-Emergence Protocol; details: Setaria faberi, pre-emergence, 312 h, evaluated after 13 days; for pest or weed control at 15.625 g/ha: 15.625 g ai/ha; for pest or weed control at 15.625 g/ha / pest or weed control at 250 g/ha: read-out: Foxtail, Giant damage rating (100=total damage to plant; 0=no damage to plant); for pest or weed control at 62.5 g/ha: 62.5 g ai/ha, 100=total damage to plant, 0=no damage to plant, read-out: plant damage rating, Foxtail, Giant; for pest or weed control at 250 g/ha: 250 g ai/ha
Method in brief: as §2

[9] = tested on: barnyardgrass (Echinochloa crus-galli); assay: Test G Pre-Emergence Protocol; details: Echinochloa crus-galli, pre-emergence, 312 h, evaluated after 13 days; for pest or weed control at 15.625 g/ha: 15.625 g ai/ha, read-out: Barnyard grass damage rating (100=total damage to plant; 0=no damage to plant); for pest or weed control at 62.5 g/ha: 62.5 g ai/ha, 100=total damage to plant, 0=no damage to plant, read-out: plant damage rating, Barnyardgrass; for pest or weed control at 250 g/ha: 250 g ai/ha, read-out: Barnyardgrass damage rating (100=total damage to plant; 0=no damage to plant)
Method in brief: as §2

corn (Zea mays) [10] = assay: Test G Pre-Emergence Protocol; details: Zea mays, pre-emergence, 312 h, evaluated after 13 days; for plant injury at 15.625 g/ha: 15.625 g ai/ha; for plant injury at 15.625 g/ha / plant injury at 250 g/ha: read-out: Corn damage rating (100=total damage to plant; 0=no damage to plant); for plant injury at 62.5 g/ha: 62.5 g ai/ha, 100=total damage to plant, 0=no damage to plant, read-out: plant damage rating, Corn; for plant injury at 250 g/ha: 250 g ai/ha
Method in brief: as §2

[11] = tested on: redroot pigweed (Amaranthus retroflexus); assay: Test G Pre-Emergence Protocol; details: Amaranthus retroflexus, pre-emergence, 312 h, evaluated after 13 days; for pest or weed control at 15.625 g/ha: 15.625 g ai/ha; for pest or weed control at 15.625 g/ha / pest or weed control at 250 g/ha: read-out: Pigweed, Redroot damage rating (100=total damage to plant; 0=no damage to plant); for pest or weed control at 62.5 g/ha: 62.5 g ai/ha, 100=total damage to plant, 0=no damage to plant, read-out: plant damage rating, Pigweed, Redroot; for pest or weed control at 250 g/ha: 250 g ai/ha
Method in brief: as §2

[12] = tested on: ivy-leaved morning glory (Ipomoea hederacea); assay: Test G Pre-Emergence Protocol; details: Ipomoea, pre-emergence, 312 h, evaluated after 13 days; for pest or weed control at 15.625 g/ha: 15.625 g ai/ha, read-out: Morning-glory, Ivy-leaved damage rating (100=total damage to plant; 0=no damage to plant); for pest or weed control at 62.5 g/ha: 62.5 g ai/ha, 100=total damage to plant, 0=no damage to plant, read-out: plant damage rating, Morningglory, Ivy-leaved; for pest or weed control at 250 g/ha: 250 g ai/ha, read-out: Morningglory, Ivy-leaved damage rating (100=total damage to plant; 0=no damage to plant)
Method in brief: as §2

Row | Structure (SMILES) | pest or weed control at 15.625 g/ha [1] | pest or weed control at 62.5 g/ha [1] | pest or weed control at 250 g/ha [1] | pest or weed control at 15.625 g/ha [2] | pest or weed control at 62.5 g/ha [2] | pest or weed control at 250 g/ha [2] | pest or weed control at 15.625 g/ha [3] | pest or weed control at 62.5 g/ha [3] | pest or weed control at 250 g/ha [3] | plant injury at 15.625 g/ha (corn (Zea mays) [4]) | plant injury at 62.5 g/ha (corn (Zea mays) [4]) | plant injury at 250 g/ha (corn (Zea mays) [4]) | pest or weed control at 15.625 g/ha [5] | pest or weed control at 62.5 g/ha [5] | pest or weed control at 250 g/ha [5] | pest or weed control at 15.625 g/ha [6] | pest or weed control at 62.5 g/ha [6] | pest or weed control at 250 g/ha [6] | pest or weed control at 15.625 g/ha [7] | pest or weed control at 62.5 g/ha [7] | also measured
1 | COC(=O)c1nccc(NC(=O)[C@@H]2C(=O)N(C)C[C@H]2c2ccc(C(F)(F)F)cc2)n1 (racemic) [Compound 1537] | 0% | 0% | 0% | 0% | 0% | 0% | 0% | 0% | 0% | 0% | 0% | 0% | 0% | 0% | 0% | 0% | 0% | 0% | 0% | 0% | pest or weed control at 250 g/ha [7]: 0%; pest or weed control at 15.625 g/ha [8]: 0%; pest or weed control at 62.5 g/ha [8]: 0%; pest or weed control at 250 g/ha [8]: 0%; pest or weed control at 15.625 g/ha [9]: 0%; pest or weed control at 62.5 g/ha [9]: 0%; pest or weed control at 250 g/ha [9]: 0%; plant injury at 15.625 g/ha (corn (Zea mays) [10]): 0%; plant injury at 62.5 g/ha (corn (Zea mays) [10]): 0%; plant injury at 250 g/ha (corn (Zea mays) [10]): 0%; pest or weed control at 15.625 g/ha [11]: 0%; pest or weed control at 62.5 g/ha [11]: 0%; pest or weed control at 250 g/ha [11]: 0%; pest or weed control at 15.625 g/ha [12]: 0%; pest or weed control at 62.5 g/ha [12]: 0%; pest or weed control at 250 g/ha [12]: 0%
2 | CCc1nccc(NC(=O)[C@@H]2C(=O)N(C)C[C@H]2c2ccc(C(F)(F)F)cc2)c1Cl (racemic) [Compound 1538] | 0% | 0% | 0% | 10% | 30% | 50% | 0% | 0% | 10% | 0% | 0% | 10% | 0% | 0% | 0% | 0% | 0% | 0% | 0% | 0% | pest or weed control at 250 g/ha [7]: 0%; pest or weed control at 15.625 g/ha [8]: 0%; pest or weed control at 62.5 g/ha [8]: 20%; pest or weed control at 250 g/ha [8]: 60%; pest or weed control at 15.625 g/ha [9]: 0%; pest or weed control at 62.5 g/ha [9]: 30%; pest or weed control at 250 g/ha [9]: 50%; plant injury at 15.625 g/ha (corn (Zea mays) [10]): 0%; plant injury at 62.5 g/ha (corn (Zea mays) [10]): 0%; plant injury at 250 g/ha (corn (Zea mays) [10]): 0%; pest or weed control at 15.625 g/ha [11]: 0%; pest or weed control at 62.5 g/ha [11]: 0%; pest or weed control at 250 g/ha [11]: 0%; pest or weed control at 15.625 g/ha [12]: 0%; pest or weed control at 62.5 g/ha [12]: 0%; pest or weed control at 250 g/ha [12]: 70%
3 | CSc1nc(NC(=O)[C@@H]2C(=O)N(C)C[C@H]2c2ccc(C(F)(F)F)cc2)n[nH]1 (racemic) [Compound 1539] | 0% | 0% | 0% | 0% | 0% | 0% | 0% | 0% | 0% | 0% | 0% | 0% | 0% | 0% | 0% | 0% | 0% | 0% | 0% | 0% | pest or weed control at 250 g/ha [7]: 0%; pest or weed control at 15.625 g/ha [8]: 0%; pest or weed control at 62.5 g/ha [8]: 10%; pest or weed control at 250 g/ha [8]: 20%; pest or weed control at 15.625 g/ha [9]: 0%; pest or weed control at 62.5 g/ha [9]: 10%; pest or weed control at 250 g/ha [9]: 20%; plant injury at 15.625 g/ha (corn (Zea mays) [10]): 0%; plant injury at 62.5 g/ha (corn (Zea mays) [10]): 0%; plant injury at 250 g/ha (corn (Zea mays) [10]): 0%; pest or weed control at 15.625 g/ha [11]: 0%; pest or weed control at 62.5 g/ha [11]: 0%; pest or weed control at 250 g/ha [11]: 0%; pest or weed control at 15.625 g/ha [12]: 0%; pest or weed control at 250 g/ha [12]: 0%
